Laboratory results published in ChEMBL document CHEMBL3272271, “Folate antagonists. 13. 2,4-Diamino-6-](alpha,alpha,alpha-trifluoro-m-tolyl)thio]quinazoline and related 2,4-diamino-6-[(phenyl- and naphthyl)thio]quinazolines, a unique class of antimetabolites with extraordinary antimalarial and antibacterial effects” (J Med Chem, 1978).
In brackets after ≈: the same amount, converted by molar mass. Activity calls are given as the source filed them. The rule behind the calls is not given here.

How the values were obtained:
[1] = system: Plasmodium gallinaceum; experiment: Antimalarial activity against sporozoite-induced Plasmodium gallinaceum infected in white leghorn chicken assessed as increase in mean survival days of host at 15 mg/kg, sc administered 72 hrs after infection relative to control; format: functional; conditions: route subcutaneous
[2] = system: Plasmodium berghei; experiment: Antimalarial activity against Plasmodium berghei infected in mouse assessed as increase in mean survival days of host at 160 mg/kg, sc administered 72 hrs after infection relative to control; format: functional; conditions: route subcutaneous
[3] = system: Plasmodium gallinaceum; experiment: Antimalarial activity against sporozoite-induced Plasmodium gallinaceum infected in white leghorn chicken assessed as disease cure from parasite infection at 15 mg/kg, sc administered 72 hrs after infection; format: functional, organism-based; design: dose 15 mg/kg
[4] = system: Plasmodium gallinaceum; experiment: Antimalarial activity against sporozoite-induced Plasmodium gallinaceum infected in white leghorn chicken assessed as increase in mean survival days of host at 30 mg/kg, sc administered 72 hrs after infection relative to control; format: functional; conditions: route subcutaneous
[5] = system: Plasmodium berghei; experiment: Antimalarial activity against Plasmodium berghei infected in mouse assessed as increase in mean survival days of host at 40 mg/kg, sc administered 72 hrs after infection relative to control; format: functional; conditions: route subcutaneous
[6] = system: Plasmodium berghei; experiment: Antimalarial activity against Plasmodium berghei infected in mouse assessed as increase in mean survival days of host at 80 mg/kg, sc administered 72 hrs after infection relative to control; format: functional; conditions: route subcutaneous
[7] = system: Plasmodium gallinaceum; experiment: Antimalarial activity against sporozoite-induced Plasmodium gallinaceum infected in white leghorn chicken assessed as disease cure from parasite infection at 120 mg/kg, sc administered 72 hrs after infection; format: functional, organism-based; design: dose 120 mg/kg
[8] = system: Plasmodium gallinaceum; experiment: Antimalarial activity against sporozoite-induced Plasmodium gallinaceum infected in white leghorn chicken assessed as disease cure from parasite infection at 30 mg/kg, sc administered 72 hrs after infection; format: functional, organism-based; design: dose 30 mg/kg
[9] = system: Enterococcus faecalis; experiment: Antibacterial activity against Streptococcus faecalis MGH-2 by gradient plate test; format: functional
[10] = system: Plasmodium berghei; experiment: Antimalarial activity against Plasmodium berghei infected in mouse assessed as disease cure from parasite infection at 640 mg/kg, sc administered 72 hrs after infection; format: functional, organism-based; design: dose 640 mg/kg
[11] = system: Plasmodium berghei; experiment: Antimalarial activity against Plasmodium berghei infected in mouse assessed as increase in mean survival days of host at 10 mg/kg, sc administered 72 hrs after infection relative to control; format: functional; conditions: route subcutaneous
[12] = system: Plasmodium gallinaceum; experiment: Antimalarial activity against sporozoite-induced Plasmodium gallinaceum infected in white leghorn chicken assessed as increase in mean survival days of host at 60 mg/kg, sc administered 72 hrs after infection relative to control; format: functional; conditions: route subcutaneous
[13] = system: Plasmodium gallinaceum; experiment: Antimalarial activity against sporozoite-induced Plasmodium gallinaceum infected in white leghorn chicken assessed as disease cure from parasite infection at 240 mg/kg, sc administered 72 hrs after infection; format: functional, organism-based; design: dose 240 mg/kg
[14] = system: Pseudomonas aeruginosa; experiment: Antibacterial activity against Pseudomonas aeruginosa 28 by gradient plate test; format: functional
[15] = system: Plasmodium berghei; experiment: Antimalarial activity against Plasmodium berghei infected in mouse assessed as increase in mean survival days of host at 320 mg/kg, sc administered 72 hrs after infection relative to control; format: functional; conditions: route subcutaneous
[16] = system: Plasmodium berghei; experiment: Antimalarial activity against Plasmodium berghei infected in mouse assessed as increase in mean survival days of host at 640 mg/kg, sc administered 72 hrs after infection relative to control; format: functional; conditions: route subcutaneous
[17] = system: Plasmodium gallinaceum; experiment: Antimalarial activity against sporozoite-induced Plasmodium gallinaceum infected in white leghorn chicken assessed as disease cure from parasite infection at 60 mg/kg, sc administered 72 hrs after infection; format: functional, organism-based; design: dose 60 mg/kg
[18] = system: Staphylococcus aureus; experiment: Antibacterial activity against Staphylococcus aureus UC-96 by gradient plate test; format: functional
[19] = system: Staphylococcus aureus; experiment: Antibacterial activity against drug-resistant Staphylococcus aureus S18713 by gradient plate test; format: functional
[20] = system: Mycobacterium tuberculosis; experiment: Antibacterial activity against Mycobacterium tuberculosis H37Ra by gradient plate test; format: functional
[21] = system: Escherichia coli; experiment: Antibacterial activity against Escherichia coli Vogel by gradient plate test; format: functional
[22] = system: Plasmodium gallinaceum; experiment: Antimalarial activity against sporozoite-induced Plasmodium gallinaceum infected in white leghorn chicken assessed as disease cure from parasite infection at 480 mg/kg, sc administered 72 hrs after infection; format: functional, organism-based; design: dose 480 mg/kg
[23] = system: Shigella sonnei; experiment: Antibacterial activity against Shigella sonnei C-10 by gradient plate test; format: functional
[24] = system: Plasmodium berghei; experiment: Antimalarial activity against Plasmodium berghei infected in mouse assessed as increase in mean survival days of host at 20 mg/kg, sc administered 72 hrs after infection relative to control; format: functional; conditions: route subcutaneous
[25] = system: Plasmodium berghei; experiment: Antimalarial activity against Plasmodium berghei infected in mouse assessed as disease cure from parasite infection at 160 mg/kg, sc administered 72 hrs after infection; format: functional, organism-based; design: dose 160 mg/kg
[26] = system: Plasmodium berghei; experiment: Antimalarial activity against Plasmodium berghei infected in mouse assessed as disease cure from parasite infection at 80 mg/kg, sc administered 72 hrs after infection; format: functional, organism-based; design: dose 80 mg/kg
[27] = system: Plasmodium berghei; experiment: Antimalarial activity against Plasmodium berghei infected in mouse assessed as disease cure from parasite infection at 40 mg/kg, sc administered 72 hrs after infection; format: functional, organism-based; design: dose 40 mg/kg
[28] = system: Plasmodium berghei; experiment: Antimalarial activity against Plasmodium berghei infected in mouse assessed as disease cure from parasite infection at 320 mg/kg, sc administered 72 hrs after infection; format: functional, organism-based; design: dose 320 mg/kg

| Structure (SMILES) | MST [2] [days] | MST [5] [days] | MST [6] [days] | MIC [9] [µg/mL] | Activity [10] | MIC [14] [µg/mL] | MST [15] [days] | MST [16] [days] | MIC [18] [µg/mL] | MIC [19] [µg/mL] | MIC [20] [µg/mL] | MIC [21] [µg/mL] | MIC [23] [µg/mL] | MST [24] [days] | also measured |
| --- | --- | --- | --- | --- | --- | --- | --- | --- | --- | --- | --- | --- | --- | --- | --- |
| Nc1nc(N)c2cc(Sc3ccccc3-c3ccccc3)ccc2n1 | 5.7 | 0.5 | 3.3 | < 0.25 | Active | > 25 | 12.5 | 16.4 | < 0.25 | < 0.25 | 20 (≈ 58.1 µM) | 2.5 (≈ 7.26 µM) | > 25 | 0.5 | MST [1]: 0 days; Activity [3]: Active; MST [4]: 0 days; Activity [7]: Active; Activity [8]: Active; MST [11]: 0.3 days; MST [12]: 0 days; Activity [13]: Active; Activity [17]: Active; Activity [22]: Active |
| Nc1nc(N)c2c(Cl)c(Sc3ccccc3Cl)ccc2n1 | 14.9 | 10.2 | 11.7 | < 0.25 | Active | > 25 | 24.4 | 24.9 | < 0.25 | < 0.25 | > 25 | < 0.25 | 1 (≈ 2.97 µM) | 4.7 | Activity [25]: Active; Activity [26]: Active; Activity [27]: Active; Activity [28]: Active |
